Laboratory results as given in patent US20230248652A1, “BIODEGRADEABLE MULTI-CAVITY MICROPARTICLES AND THEIR USE IN TREATMENT” (OXFORD UNIVERSITY INNOVATION LIMITED, priority 2020, published 2023).

System: 3D foam cell spheroid
Test: HIFU implantation of loaded mcPLGA MPs into 3D foam cell spheroids (fluorescence)
Assay type: cell-based, human
Conditions: HIFU exposure, 1 mg/ml
Experimental: As the cells in the ex vivo porcine artery were considered non-viable, we have also tested the ability to deliver DAPI to viable cells using a 3D foam cell spheroid model (FIG. 13).
THP-1 cells, a human monocytic cell line (ATCC, Rockville, MD) were routinely cultured in Roswell Park Memorial Institute (RPMI) 1640 Medium supplemented with 100 IU/ml of penicillin, 100 µg/ml streptomycin, 2 mmol/l L-glutamine, 10% (vol/vol) FBS and incubated in a humidified atmosphere of 5% CO2 in an incubator at 37° C. The medium was replaced every 2-3 days by centrifuging these suspended cells at 125 g for 5 min. For differentiation of THP-1 monocytes into macrophages, THP-1 cells were seeded at a density of 7 × 10^5 cells/ml with differentiation medium, growth medium supplemented with 50 ng/mL phorbol 12-myristate 13-acetate (PMA), for 3 days to obtain macrophages. Subsequently, for foam cells induction, macrophages were incubated with 100 µg/ml oxLDL (Low Density Lipoprotein from Human Plasma, oxidized; Invitrogen,USA) in the differentiation medium for 2 days.
Foam cells were used to produce a three-dimensional (3D) foam cell spheroid model by modification of the hanging drop method. Single-cell suspensions were generated from trypsinized monolayers. […]
Fluorescence microscopy was used to analyze the distribution of mcPLGA MPs and the release of therapeutics (FIG. 27c). […]

## N=C(N)c1ccc(-c2cc3ccc(C(=N)N)cc3[nH]2)cc1 [DAPI]
  delivery of DAPI / particle distribution in foam cell spheroid: diffused through the membranes of the cells to stain the DNA of the foam cells
